By pest or weed control is commonly meant how far the test organism was held down. Read a low pest or weed control as a weak effect.

What all share (assay): Pre-emerge greenhouse herbicide test, phytotoxicity rating
Holding throughout (format): in vivo

The subject of assay [1] is Johnsongrass (Sorghum halepense, SORHA). The settings on record: Sorghum halepense, pre-emergence, 336 h, 14 days after application, rating scale 0-100; for pest or weed control at 125 g/ha: Rate 125 g al/ha; for pest or weed control at 500 g/ha: Rate 500 g al/ha. An outline of the steps: (§1)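 Seeds sown in sandy loam one day before track-sprayer application of acetone solutions at 125–1000 g ai/ha (187 l/ha), then surface-watered to incorporate and bottom-watered. Injury scored visually at 14 days on a 0–100 scale (0 no damage, 100 complete death).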

The test system of assay [2] is barnyardgrass (Echinochloa crusgalli, ECHCG). The settings on record: Echinochloa crus-galli, pre-emergence, 336 h, 14 days after application, rating scale 0-100; for pest or weed control at 125 g/ha: Rate 125 g al/ha; for pest or weed control at 500 g/ha: Rate 500 g al/ha. The gist of the method:
as §1

For assay [3], the system named is sicklepod (Cassia obtusifolia, CASOB). The settings on record: Senna obtusifolia, pre-emergence, 336 h, 14 days after application, rating scale 0-100; for pest or weed control at 125 g/ha: Rate 125 g al/ha; for pest or weed control at 500 g/ha: Rate 500 g al/ha. The gist of the method: as §1

`Nn1c(C(F)(F)F)cc(=O)n(-c2cc(Oc3ncccc3C(F)(F)F)c(Cl)cc2F)c1=O` [Compound 9-7, 1-Amino-3-[4-chloro-2-fluoro-5-(3-trifluoromethyl-2-pyridyloxy)phenyl]-6-trifluoromethyl-1,2,3,4-tetrahydropyrimidine-2,4-dione]: the figures for the pest or weed control at 125 g/ha in assay [1], in assay [2] and in assay [3] were 90%, 90% and 40%, respectively. In addition, the pest or weed control at 500 g/ha in assay [1], in assay [2] and in assay [3] was 100% in each case.
On to `Cc1nsc(Oc2cc(-n3c(=O)cc(C(F)(F)F)n(N)c3=O)c(F)cc2Cl)c1[N+](=O)[O-]` [Compound 9-14, 1-Amino-3-[4-Chloro-2-fluoro-5-(3-methyl-4-nitroisothiazol-5-yloxy)phenyl]-6-trifluoromethyl-1,2,3,4-tetrahydropyrimidine-2,4-dione], for which the pest or weed control at 125 g/ha in assay [1] is 95%; in assay [2] it was 95%; in assay [3], 100%. The pest or weed control at 500 g/ha in assay [1] stood at 100%; in assay [2], 90%; in assay [3] it was 90%.
For the compound `N#Cc1ccc(Oc2cc(-n3c(=O)cc(C(F)(F)F)n(N)c3=O)c(F)cc2Cl)nc1` [Compound 9-10, 1-Amino-3-[4-chloro-2-fluoro-5-(5-cyano-2-pyridyloxy)phenyl]-6-trifluoromethyl-1,2,3,4-tetrahydropyrimidine-2,4-dione], the pest or weed control at 125 g/ha in assay [1] is 95%; in assay [2] it was 90%; in assay [3], 100%. Further, the pest or weed control at 500 g/ha in assay [1], in assay [2] and in assay [3] was 100% throughout.
Regarding `Nn1c(C(F)(F)F)cc(=O)n(-c2cc(Oc3ccc(Cl)cn3)c(Cl)cc2F)c1=O` [Compound 9-3, 1-Amino-3-[4-chloro-2-fluoro-5-(5-chloro-2-pyridyloxy)phenyl]-6-trifluoromethyl-1,2,3,4-tetrahydropyrimidine-2,4-dione], the pest or weed control at 125 g/ha in assay [1] turned out to be 70%; in assay [2], 30%; in assay [3] it was 0%. Besides, the figures for the pest or weed control at 500 g/ha in assay [1], in assay [2] and in assay [3] were 99%, 99% and 70%, respectively.
For `Nn1c(C(F)(F)F)cc(=O)n(-c2cc(Oc3ncccn3)c(Cl)cc2F)c1=O` [Compound 9-16, 1-Amino-3-[4-chloro-2-fluoro-5-(2-pyrimidyloxy)phenyl]-6-trifluoromethyl-1,2,3,4-tetrahydropyrimidine-2,4-dione], the pest or weed control at 125 g/ha in assay [1], in assay [2] and in assay [3] was 100% throughout. Moreover, the pest or weed control at 500 g/ha in assay [1], in assay [2] and in assay [3] was 100% throughout.
Turning to `Nn1c(C(F)(F)F)cc(=O)n(-c2cc(Oc3ccccc3C(F)(F)F)c(Cl)cc2F)c1=O` [Compound 9-24, 1-amino-3-[4-chloro-2-fluoro-5-(2-trifluoromethylphenoxy)phenyl]-6-trifluoromethyl-1,2,3,4-tetrahydropyrimidine-2,4-dione], the pest or weed control at 125 g/ha in assay [1] came to 30%; in assay [2] it was 60%; in assay [3], 30%. Also, the pest or weed control at 500 g/ha in assay [1] stood at 90%; in assay [2], 70%; in assay [3], 0%.
As to `Nn1c(C(F)(F)F)cc(=O)n(-c2cc(Oc3ccccn3)c(Cl)cc2F)c1=O` [Compound 9-15, 1-amino-3-[4-chloro-2-fluoro-5-(2pyridyloxy)phenyl]-6-trifluoromethyl-1,2,3,4-tetrahydropyrimidine-2,4-dione], the pest or weed control at 125 g/ha in assay [1] worked out at 100%; in assay [2], 100%; in assay [3], 95%. Besides, the pest or weed control at 500 g/ha in assay [1], in assay [2] and in assay [3] was 100% throughout.
In the case of `Nn1c(C(F)(F)F)cc(=O)n(-c2cc(Oc3ccc([N+](=O)[O-])cc3C(F)(F)F)c(Cl)cc2F)c1=O` [Compound 9-22, 1-Amino-3-[4-chloro-2-fluoro-5-(4-nitro-2-trifluoromethylphenoxy)phenyl]-6-trifluoromethyl-1,2,3,4-tetrahydropyrimidine-2,4-dione], the pest or weed control at 125 g/ha stood at 50% in assay [1], 50% in assay [2] and 30% in assay [3]. The pest or weed control at 500 g/ha in assay [1] came to 95%; in assay [2], 90%; in assay [3], 80%.
For the compound `Nn1c(C(F)(F)F)cc(=O)n(-c2cc(Oc3nccc(Cl)n3)c(Cl)cc2F)c1=O` [Compound 9-17, 1-Amino-3-[4-chloro-2-fluoro-5-(4-chloro-2-pyrimidyloxy)phenyl]-6-trifluoromethyl-1,2,3,4-tetrahydropyrimidine-2,4-dione], the pest or weed control at 125 g/ha in assay [1] was determined as 30%; in assay [2], 20%; in assay [3], 20%. Further, the figures for the pest or weed control at 500 g/ha in assay [1], in assay [2] and in assay [3] were 90%, 100% and 70%, respectively.
For `Nn1c(C(F)(F)F)cc(=O)n(-c2cc(Oc3cccc(Cl)n3)c(Cl)cc2F)c1=O` [Compound 9-5, 1-Amino-3-[4-chloro-2-fluoro-5-(6-chloro-2-pyridyloxy)phenyl]-6-trifluoromethyl-1,2,3,4-tetrahydropyrimidine-2,4-dione], the pest or weed control at 125 g/ha in assay [1] came to 95%; in assay [2], 90%; in assay [3] it was 10%. For the same compound, the pest or weed control at 500 g/ha in assay [1] came to 100%; in assay [2], 100%; in assay [3], 50%.
For `Nn1c(C(F)(F)F)cc(=O)n(-c2cc(Oc3ccccc3[N+](=O)[O-])c(Cl)cc2F)c1=O` [Compound 9-21, 1-amino-3-[4-chloro-2-fluoro-5-(2-nitrophenoxy)phenyl]-6-trifluoromethyl-1,2,3,4-tetrahydropyrimidine-2,4-dione], the pest or weed control at 125 g/ha amounted to 90% in assay [1], 90% in assay [2] and 30% in assay [3]. For the same compound, the pest or weed control at 500 g/ha was 100% in assay [1], 100% in assay [2] and 90% in assay [3].
Turning to `Nn1c(C(F)(F)F)cc(=S)n(-c2cc(Oc3ccc(Cl)cn3)c(Cl)cc2F)c1=O` [Compound 9-28, 1-amino-3-[4-chloro-2-fluoro-5-(5-chloro-2-pyridyloxy)phenyl]-6-trifluoromethyl-1,2,3,4tetrahydro-2-oxo-4-thioxopyrimidine], the results for the pest or weed control at 125 g/ha in assay [1], in assay [2] and in assay [3] were 20%, 20% and 50%, respectively. Further, the pest or weed control at 500 g/ha in assay [1] worked out at 80%; in assay [2] it was 80%; in assay [3], 50%.
As to `N#Cc1cccnc1Oc1cc(-n2c(=O)cc(C(F)(F)F)n(N)c2=O)c(F)cc1Cl` [Compound 9-9, 1-Amino-3-[4-chloro-2-fluoro-5-(3-cyano-2-pyridyloxy)phenyl]-6-trifluoromethyl-1,2,3,4-tetrahydropyrimidine-2,4-dione], the pest or weed control at 125 g/ha in assay [1], in assay [2] and in assay [3] was 100% throughout. Also, the pest or weed control at 500 g/ha in assay [1], in assay [2] and in assay [3] was 100% in each case.
With `Nn1c(C(F)(F)F)cc(=O)n(-c2cc(Oc3ccc([N+](=O)[O-])cn3)c(Cl)cc2F)c1=O` [Compound 9-11, 1-Amino-3-[4-chloro-2-fluoro-5-(5-nitro-2-pyridyloxy)phenyl]-6-trifluoromethyl-1,2,3,4-tetrahydropyrimidine-2,4-dione], the pest or weed control at 125 g/ha in assay [1] came out at 20%; in assay [2], 10%; in assay [3] it was 10%. For the same compound, the pest or weed control at 500 g/ha in assay [1] came to 90%; in assay [2] it was 80%; in assay [3] it was 20%.
For the compound `Nn1c(C(F)(F)F)cc(=O)n(-c2cc(Oc3ccccc3)c(Cl)cc2F)c1=O` [Compound 9-26, 1-Amino-3-[4-chloro-2-fluoro-5-phenoxyphenyl]-6-trifluoromethyl-1,2,3,4-tetrahydropyrimidine-2,4-dione], the pest or weed control at 125 g/ha came to 90% in assay [1], 95% in assay [2] and 95% in assay [3]. Besides, the pest or weed control at 500 g/ha in assay [1], in assay [2] and in assay [3] was 100% in each case.
As for `Nn1c(C(F)(F)F)cc(=O)n(-c2cc(Oc3ccc(Br)cn3)c(Cl)cc2F)c1=O` [Compound 9-2, 1-Amino-3-[4-chloro-2-fluoro-5-(5-bromo-2-pyridyloxy)phenyl]-6-trifluoromethyl-1,2,3,4-tetrahydropyrimidine-2,4-dione], the pest or weed control at 125 g/ha came to 60% in assay [1], 20% in assay [2] and 0% in assay [3]. Besides, the pest or weed control at 500 g/ha in assay [1] was determined as 90%; in assay [2] it was 95%; in assay [3], 50%.

(Values after patent US6479435B1, “Diaryl ethers and processes for their preparation and herbicidal and desiccant compositions containing them” (ISK Americas Incorporated, priority 1997, dated 2002).)
